Values quoted from earlier work, collected in patent EP4817601A1, “NANOPARTICLES COMPRISING SIROLIMUS AND ALBUMIN, PHARMACEUTICAL COMPOSITION FOR SUBCUTANEOUS ADMINISTRATION, COMPRISING SAME, AND PREPARATION METHOD THEREFOR” (SNBioscience Inc., priority 2023, dated 2025).

Conditions: poorly soluble drug; background statement

bioavailability (BA): 14%
SMILES: CO[C@H]1C[C@@H]2CC[C@@H](C)[C@@](O)(O2)C(=O)C(=O)N2CCCC[C@H]2C(=O)O[C@H]([C@H](C)C[C@@H]2CC[C@@H](O)[C@H](OC)C2)CC(=O)[C@H](C)/C=C(\C)[C@@H](O)[C@@H](OC)C(=O)[C@H](C)C[C@H](C)/C=C/C=C/C=C/1C [Sirolimus]
